# Measurements as given in patent publication US5126367A, “Psychotropic benzodioxan derivatives” (American Home Products Corporation, priority 1991, dated 1992).
# pEC50, pIC50: −log10 of the molar value.
# Key:
# [1] = biological target: T1, dopamine D-2 receptor (Rattus norvegicus, UniProt P61169); assay: D-2 Binding: displacement of 3H-spiroperidol in homogenized limbic brain tissue
# T1 construct: from tissue; host or cells: homogenized limbic brain tissue
# Description: High affinity for the dopamine D2 receptor was established by the standard experimental test procedure of Fields, et al., Brain Res., 136, 578 (1977) and Yamamura et al., eds., Neurotransmitter Receptor Binding, Raven Press, New York (1978) wherein homogenized limbic brain tissue is incubated with ^3 H-spiroperidol and various concentrations of test compound, filtered and washed and shaken with Hydrofluor scintillation cocktail (National Diagnostics) and counted in a Packard 460 CD scintillation counter.
# [2] = biological target: T2, serotonin 5-HT1A receptor (Rattus norvegicus, UniProt P19327); assay: 5-HT1A Binding: displacement of [3H] 8-OHDPAT
# T2 construct: following the procedure of Hall et al., J. Neurochem; 44, 1685 (1985); from tissue; host or cells: brain tissue (from the cited method)
# T2 sequence (P19327 1-422): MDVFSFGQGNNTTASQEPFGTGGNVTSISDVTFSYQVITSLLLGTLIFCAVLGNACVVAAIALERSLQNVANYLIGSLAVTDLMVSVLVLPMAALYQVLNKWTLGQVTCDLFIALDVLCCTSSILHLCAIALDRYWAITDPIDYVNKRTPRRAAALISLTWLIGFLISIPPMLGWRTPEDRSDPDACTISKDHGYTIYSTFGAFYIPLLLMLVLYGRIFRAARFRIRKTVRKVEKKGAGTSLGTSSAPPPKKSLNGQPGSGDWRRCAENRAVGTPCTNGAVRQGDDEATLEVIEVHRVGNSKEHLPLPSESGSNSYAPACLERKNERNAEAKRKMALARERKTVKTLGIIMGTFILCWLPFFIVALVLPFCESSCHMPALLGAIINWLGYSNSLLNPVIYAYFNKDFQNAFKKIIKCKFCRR
# From the text: High affinity for the serotonin 5-HT1A receptor was established by testing the claimed compound's ability to displace [^3 H] 8-OHDPAT (dipropylaminotetralin) from the 5-HT1A serotonin receptor following the procedure of Hall et al., J. Neurochem. 44, 1685 (1985). […] The anxiolytic activity of buspirone is believed to be, at least partially, due to its 5-HT1A receptor affinity (Vander Maclen et al., Eur. J. Pharmacol. 1986, 129 (1-2) 133-130).
# [3] = test system: serotonin syndrome (5-HT1A); assay: Production of the serotonin syndrome (agonist activity); assay type: in vivo, male Sprague-Dawley CD rats; settings: for ED50: Rattus norvegicus, 0.25 h, first 15 minutes after compound administration, read-out: ED50 for producing the serotonin syndrome
# Description: (§1) Certain of the compounds of this invention were also compared to buspirone in their ability to either produce or antagonize the serotonin syndrome according to the procedure of Smith and Peroutka, Pharmacol. Biochem. Behav. 24: 1513-1519, 1986, in which 250-350 g male Sprague-Dawley CD rats (Charles River) are given either test compound or vehicle and placed individually into plexiglass observation cages. Agonist activity of the compound is determined by scoring for the presence of the serotonin syndrome (forepaw treading, head weaving, tremor, hindlimb abduction, flattened body posture, and Straub tail) during the first 15 minutes after compound administration. Antagonist activity is then determined by a challenge with either of the 5-HT1A agonists 5-methoxy-N,N-dimethyltryptamine (5-MeODMT) or 8-hydroxydipropylaminotetralin.
# [4] = test system: serotonin syndrome (5-HT1A); assay: Antagonism of 5-HT1A agonist-induced (5-MeODMT or 8-OH-DPAT) serotonin syndrome; assay type: in vivo, male Sprague-Dawley CD rats; settings: for ED50: Rattus norvegicus, rats
# Description: as §1
# [5] = test system: 5-HT1A receptor; settings: cited from earlier work
# [6] = biological target: T2, serotonin 5-HT1A receptor; settings: buspirone, standard for anxiolytic activity; cited from earlier work
# T1 sequence (P61169 whole entry): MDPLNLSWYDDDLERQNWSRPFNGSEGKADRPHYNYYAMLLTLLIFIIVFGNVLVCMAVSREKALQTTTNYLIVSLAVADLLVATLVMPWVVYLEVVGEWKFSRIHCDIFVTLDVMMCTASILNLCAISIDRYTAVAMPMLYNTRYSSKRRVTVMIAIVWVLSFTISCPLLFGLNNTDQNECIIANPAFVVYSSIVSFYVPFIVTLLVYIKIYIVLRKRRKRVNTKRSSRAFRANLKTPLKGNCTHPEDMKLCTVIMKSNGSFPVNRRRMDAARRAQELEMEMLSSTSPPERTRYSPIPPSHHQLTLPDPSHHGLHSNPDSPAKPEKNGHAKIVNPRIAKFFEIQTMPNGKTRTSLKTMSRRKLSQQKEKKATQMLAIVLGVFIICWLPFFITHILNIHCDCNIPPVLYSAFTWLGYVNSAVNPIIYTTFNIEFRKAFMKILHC
Structure (SMILES),inhibition at 1 µM [1] [%],inhibition at 0.1 µM [2] [%],further results
"CC1(C)C2CCC1(C(=O)NCCNCC1COc3ccccc3O1)C(=O)C2 (single isomer, unassigned; (+)) [Example 5, (+)-N-[2-[[(2,3-Dihydro-1,4-benzodioxin-2-yl)methyl]amino]ethyl]-7,7-dimethyl-2-oxobicyclo[2,2,1]heptane-1-carboxamide]",34,97,"pEC50 ([2]; 5-HT1A binding, given as EC50): 8.52; ED50 ([3]; rats): 3.8 mg/kg; ED50 ([4]; challenge with 8-OH-DPAT, read-out: ED50 for antagonizing 8-OH-DPAT induced syndrome): 4.7 mg/kg"
"O=C(NCCNCC1COc2ccccc2O1)NC12CC3CC(CC1C3)C2 (stereo not drawn) [Example 4, N-[2-[(2,3-Dihydro-1,4-benzodioxin-2-yl)methyl]aminoethyl-N'-hexahydro-2,5-methanopentalen-3a(1H)-yl]urea]",55,95,
"O=C(NCCNCC1COc2ccccc2O1)C12CC3CC(CC1C3)C2 (stereo not drawn) [Example 7, N-[2-[[(2,3-Dihydro-1,4-benzodioxin-2-yl)methyl]amino]ethyl]hexahydro-2,5-methanopentalene-3a(1H)-carboxamide]",81,98,
"O=C1CC2(CCCC2)CC(=O)N1CCCCNCC1COc2ccccc2O1 (single isomer, unassigned; (-)) [(-)-MDL 72832]",,,binding relative to the dextrorotary isomer at the 5-HT1A receptor site ([5]; (-)-isomer vs dextrorotary isomer): 32 times
"O=C1CC2(CCCC2)CC(=O)N1CCCCN1CCN(c2ncccn2)CC1 [buspirone, reference compound]",,,"ED50 ([3]; rats): 7.3 mg/kg; characterization as agonist/antagonist in the serotonin syndrome test ([3]; buspirone: from ED50s for production and antagonism): partial agonist; ED50 ([4]; challenge with 5-MeODMT, read-out: ED50 for antagonizing 5-MeODMT-induced syndrome): 4.6 mg/kg; affinity for the 5-HT1A serotonin receptor subtype (in words) [6]: potent affinity"
"O=C1CC2(CCCC2)CC(=O)N1CCCCNCC1COc2ccccc2O1 (stereo not drawn) [MDL 72832, 8-[4-(1,4-benzodioxan-2-ylmethylamino)butyl]-8-azaspiro[4.5]decane-7,9-dione]",,,5-HT1A ligand character (in words) [5]: selective and stereospecific

# Further lines, with some results ahead:
inhibition at 1 µM [1] [%],inhibition at 0.1 µM [2] [%],Structure (SMILES),further results
34,88,"CC1(C)C2CCC1(C(=O)NCCNCC1COc3ccccc3O1)C(=O)C2 (single isomer, unassigned; (-)) [Example 6]",characterization as agonist/antagonist in the serotonin syndrome test ([3]; single dose of 20 mg/kg): partial agonist
83,100,"O=C(NCCNCC1COc2ccccc2O1)C12CC3CC(CC(C3)C1)C2 (stereo not drawn) [Example 1, N-[2-[[(2,3-Dihydro-1,4-benzodioxin-2-yl)methyl]amino]ethyl]tricyclo[3,3,1,1(3,7)]-decane-1-carboxamide]",
91,100,"O=C(OCCNCC1COc2ccccc2O1)C12CC3CC(CC(C3)C1)C2 (stereo not drawn) [Example 2, Tricyclo[3,3,1,1(3,7)]decane-1-carboxylic acid 2-[[(2,3-dihydro-1,4-benzodioxin-2-yl)methyl]amino]ethyl ester]",
27,98,"O=C(NCCNCC1COc2ccccc2O1)NC12CC3CC(CC(C3)C1)C2 (stereo not drawn) [Example 3, N-[2-[(2,3-Dihydro-1,4-benzodioxin-2-yl)methylamino]ethyl]-N'-tricyclo[3,3,1,1(3,7)]dec-1-ylurea]","pIC50 ([2]; 5-HT1A binding): 8.30; production of the serotonin syndrome on its own ([3]; compound alone, rats): did not produce the syndrome on its own; ability to antagonize the serotonin syndrome ([4]; 1.0, 3.3, 10.0, and 33.0 mg/kg): mimicked buspirone's ability to antagonize the serotonin syndrome"
49,90,"CC1(C)[C@H]2CC[C@]1(CS(=O)(=O)NCCNCC1COc3ccccc3O1)C(=O)C2 (single isomer, unassigned) [Example 8]",pIC50 ([2]; 5-HT1A binding): 8.05
